Source: ChEMBL document CHEMBL4308841, “Synthesis, in vitro antiproliferative activity, and kinase inhibitory effects of pyrazole-containing diarylureas and diarylamides” (Eur J Med Chem, 2018)

Assays:
SF-295 = assay: Growth inhibition of human SF295 cells incubated for 48 hrs by sulforhodamine B assay; type: functional, cell-based; details: SF-295, 48 h
SF-539 [1] = assay: Growth inhibition of human SF539 cells assessed as cell growth at 0.1 uM incubated for 48 hrs by sulforhodamine B assay relative to control; type: functional; details: SF-539, 48 h, read-out: Activity
SNB-19 = assay: Growth inhibition of human SNB19 cells assessed as cell growth at 100 uM incubated for 48 hrs by sulforhodamine B assay relative to control; type: functional; details: SNB-19, 48 h, read-out: Activity
OVCAR-5 = assay: Growth inhibition of human OVCAR5 cells assessed as cell growth at 0.01 uM incubated for 48 hrs by sulforhodamine B assay relative to control; type: functional; details: OVCAR-5, 48 h, read-out: Activity
MDA-MB-468 = assay: Growth inhibition of human MDA-MB-468 cells incubated for 48 hrs by sulforhodamine B assay; type: functional, cell-based; details: MDA-MB-468, 48 h
SF-268 [2] = assay: Growth inhibition of human SF268 cells assessed as cell growth at 1 uM incubated for 48 hrs by sulforhodamine B assay relative to control; type: functional; details: SF-268, 48 h, read-out: Activity
LOX IMVI [3] = assay: Growth inhibition of human LOXIMVI cells assessed as cell growth at 1 uM incubated for 48 hrs by sulforhodamine B assay relative to control; type: functional; details: read-out: Activity
SK-MEL-28 = assay: Growth inhibition of human SK-MEL-28 cells incubated for 48 hrs by sulforhodamine B assay; type: functional, cell-based; details: SK-MEL-28, 48 h
UO-31 = assay: Growth inhibition of human UO31 cells assessed as cell growth at 0.01 uM incubated for 48 hrs by sulforhodamine B assay relative to control; type: functional; details: UO-31, 48 h, read-out: Activity
UACC-62 = assay: Growth inhibition of human UACC62 cells assessed as cell growth at 0.1 uM incubated for 48 hrs by sulforhodamine B assay relative to control; type: functional; details: UACC-62, 48 h, read-out: Activity
HCT-116 = assay: Growth inhibition of human HCT116 cells assessed as cell growth at 100 uM incubated for 48 hrs by sulforhodamine B assay relative to control; type: functional; details: HCT-116, 48 h, read-out: Activity
T47D = assay: Growth inhibition of human T47D cells assessed as cell growth at 0.1 uM incubated for 48 hrs by sulforhodamine B assay relative to control; type: functional; details: read-out: Activity
K562 [4] = assay: Growth inhibition of human K562 cells assessed as cell growth at 1 uM incubated for 48 hrs by sulforhodamine B assay relative to control; type: functional; details: K562, 48 h, read-out: Activity
LOX IMVI [5] = assay: Growth inhibition of human LOXIMVI cells assessed as cell growth at 0.1 uM incubated for 48 hrs by sulforhodamine B assay relative to control; type: functional; details: read-out: Activity
ACHN = assay: Growth inhibition of human ACHN cells assessed as cell growth at 100 uM incubated for 48 hrs by sulforhodamine B assay relative to control; type: functional; details: read-out: Activity
SW-620 = assay: Growth inhibition of human SW620 cells assessed as cell growth at 1 uM incubated for 48 hrs by sulforhodamine B assay relative to control; type: functional; details: SW-620, 48 h, read-out: Activity
Hs-578T = assay: Growth inhibition of human Hs578T cells assessed as cell growth at 100 uM incubated for 48 hrs by sulforhodamine B assay relative to control; type: functional; details: read-out: Activity
MDA-MB-435 = assay: Growth inhibition of human MDA-MB-435 cells incubated for 48 hrs by sulforhodamine B assay; type: functional, cell-based; details: MDA-MB-435, 48 h
A549 = assay: Growth inhibition of human A549/ATCC cells incubated for 48 hrs by sulforhodamine B assay; type: functional, cell-based; details: A549, 48 h
RPMI-8226 [6] = assay: Growth inhibition of human RPMI8226 cells incubated for 48 hrs by sulforhodamine B assay; type: functional, cell-based; details: RPMI-8226, 48 h
BT-549 = assay: Growth inhibition of human BT549 cells assessed as cell growth at 0.1 uM incubated for 48 hrs by sulforhodamine B assay relative to control; type: functional; details: BT-549, 48 h, read-out: Activity
A498 = assay: Growth inhibition of human A498 cells assessed as cell growth at 0.01 uM incubated for 48 hrs by sulforhodamine B assay relative to control; type: functional; details: A498, 48 h, read-out: Activity
RPMI-8226 [7] = assay: Growth inhibition of human RPMI8226 cells assessed as cell growth at 0.01 uM incubated for 48 hrs by sulforhodamine B assay relative to control; type: functional; details: RPMI-8226, 48 h, read-out: Activity
MDA-MB-231 = assay: Growth inhibition of human MDA-MB-231 cells incubated for 48 hrs by sulforhodamine B assay; type: functional, cell-based; details: MDA-MB-231, 48 h
SF-539 [8] = assay: Growth inhibition of human SF539 cells incubated for 48 hrs by sulforhodamine B assay; type: functional, cell-based; details: SF-539, 48 h
RPMI-8226 [9] = assay: Growth inhibition of human RPMI8226 cells assessed as cell growth at 0.1 uM incubated for 48 hrs by sulforhodamine B assay relative to control; type: functional; details: RPMI-8226, 48 h, read-out: Activity
SF-268 [10] = assay: Growth inhibition of human SF268 cells assessed as cell growth at 100 uM incubated for 48 hrs by sulforhodamine B assay relative to control; type: functional; details: SF-268, 48 h, read-out: Activity
K562 [11] = assay: Growth inhibition of human K562 cells assessed as cell growth at 0.01 uM incubated for 48 hrs by sulforhodamine B assay relative to control; type: functional; details: K562, 48 h, read-out: Activity
[12] = read-out: LC50 (the source's name)
[13] = read-out: pLC50 (the source's name) (converted)

## COc1cc(Cl)cc(-c2nn(-c3cccc(NC(=O)Nc4ccc(Cl)c(C(F)(F)F)c4)c3)cc2-c2ccncc2)c1
SF-295; read-out: GI50
  GI50: 0.455 µM
SF-295; [12]
  CC50: 5.15 µM
SF-295; read-out: TGI
  TGI: 20 µM
SF-295; read-out: pGI50 (converted)
  GI50: 0.468 µM
SF-295; [13]
  CC50: 6.17 µM
SF-295; read-out: pTGI (converted)
  TGI: 2 µM
SF-539 [1]
  growth at 0.1 µM: 91%
SNB-19
  growth at 100 µM: -25%
OVCAR-5
  growth at 0.01 µM: 54%
MDA-MB-468
  IC50: 0.99 µM
MDA-MB-468; read-out: GI50
  GI50: 0.9 µM
MDA-MB-468; [12]
  CC50: > 100 µM
MDA-MB-468; read-out: TGI
  TGI: 54.7 µM
MDA-MB-468; read-out: pGI50 (converted)
  GI50: 1 µM
MDA-MB-468; [13]
  CC50: > 100 µM
MDA-MB-468; read-out: pTGI (converted)
  TGI: 5.5 µM
SF-268 [2]
  growth at 1 µM: 83%
LOX IMVI [3]
  growth at 1 µM: 61%
SK-MEL-28; read-out: GI50
  GI50: 2.41 µM
SK-MEL-28; [12]
  CC50: 5.41 µM
SK-MEL-28; read-out: TGI
  TGI: 84.1 µM
SK-MEL-28; read-out: pGI50 (converted)
  GI50: 2.4 µM
SK-MEL-28; [13]
  CC50: 53.7 µM
SK-MEL-28; read-out: pTGI (converted)
  TGI: 4.17 µM
UO-31
  growth at 0.01 µM: 91%
UACC-62
  growth at 0.1 µM: 93%
HCT-116
  growth at 100 µM: -94%
T47D
  growth at 0.1 µM: 103%
K562 [4]
  growth at 1 µM: 35%
LOX IMVI [5]
  growth at 0.1 µM: 97%
ACHN
  growth at 100 µM: -31%
SW-620
  growth at 1 µM: 63%
Hs-578T
  growth at 100 µM: -6%
MDA-MB-435; read-out: GI50
  GI50: 1.75 µM
MDA-MB-435; read-out: LC50
  LC50: > 100 µM
MDA-MB-435; read-out: TGI
  TGI: 43.5 µM
MDA-MB-435; read-out: pGI50 (converted)
  GI50: 1.74 µM
MDA-MB-435; read-out: pLC50 (converted)
  LC50: > 100 µM
MDA-MB-435; read-out: pTGI (converted)
  TGI: 3.47 µM
A549
  IC50: 0.68 µM
A549; read-out: GI50
  GI50: 0.676 µM
A549; [12]
  CC50: 4.32 µM
A549; read-out: TGI
  TGI: 10.6 µM
A549; read-out: pGI50 (converted)
  GI50: 0.676 µM
A549; [13]
  CC50: 46.8 µM
A549; read-out: pTGI (converted)
  TGI: 10.7 µM
RPMI-8226 [6]
  IC50: 0.4 µM
RPMI-8226 [6]; read-out: GI50
  GI50: 0.402 µM
RPMI-8226 [6]; [12]
  CC50: > 100 µM
RPMI-8226 [6]; read-out: TGI
  TGI: 20.7 µM
RPMI-8226 [6]; read-out: pGI50 (converted)
  GI50: 0.398 µM
RPMI-8226 [6]; [13]
  CC50: > 100 µM
RPMI-8226 [6]; read-out: pTGI (converted)
  TGI: 2.09 µM
BT-549
  growth at 0.1 µM: 99%
A498
  growth at 0.01 µM: 57%
RPMI-8226 [7]
  growth at 0.01 µM: 97%
MDA-MB-231; read-out: GI50
  GI50: 1.44 µM
MDA-MB-231; [12]
  CC50: 9.52 µM
MDA-MB-231; read-out: TGI
  TGI: 37.4 µM
MDA-MB-231; read-out: pGI50 (converted)
  GI50: 1.45 µM
MDA-MB-231; [13]
  CC50: 9.77 µM
MDA-MB-231; read-out: pTGI (converted)
  TGI: 3.72 µM
SF-539 [8]; read-out: GI50
  GI50: 1.5 µM
SF-539 [8]; [12]
  CC50: 7.51 µM
SF-539 [8]; read-out: TGI
  TGI: 33.5 µM
SF-539 [8]; read-out: pGI50 (converted)
  GI50: 1.51 µM
SF-539 [8]; [13]
  CC50: 7.59 µM
SF-539 [8]; read-out: pTGI (converted)
  TGI: 3.39 µM
RPMI-8226 [9]
  growth at 0.1 µM: 100%
SF-268 [10]
  growth at 100 µM: -58%
K562 [11]
  growth at 0.01 µM: 94%
